Results published in PubChem BioAssay (NCI).
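Protocol summary: plate cells (96-well), add compound at 5 concentrations, incubate 48 h, interpolate endpoints linearly. Here, GI50 denotes the concentration required for 50% inhibition of growth. Definition used: TGI = concentration required for complete inhibition of growth.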

What was measured:
Test in all cases: NCI anticancer screen, dose series, 48 h
[1] = test system: 786-0 renal
[2] = test system: A498 renal
[3] = test system: A549 NSCLC
[4] = test system: ACHN renal
[5] = test system: BT-549 breast
[6] = test system: CAKI-1 renal
[7] = test system: CCRF-CEM leukemia
[8] = test system: COLO 205 colon
[9] = test system: DU-145 prostate
[10] = test system: EKVX NSCLC
[11] = test system: HCC-2998 colon
[12] = test system: HCT-116 colon
[13] = test system: HCT-15 colon
[14] = test system: HL-60(TB) leukemia
[15] = test system: HOP-62 NSCLC
[16] = test system: HOP-92 NSCLC
[17] = test system: HS 578T breast
[18] = test system: HT29 colon
[19] = test system: IGROV1 ovarian
[20] = test system: K-562 leukemia
[21] = test system: KM12 colon
[22] = test system: LOX IMVI melanoma
[23] = test system: M14 melanoma
[24] = test system: MALME-3M melanoma
[25] = test system: MCF7 breast
[26] = test system: MDA-MB-231 breast
[27] = test system: MDA-MB-435
[28] = test system: MOLT-4 leukemia
[29] = test system: NCI-H226 lung
[30] = test system: NCI-H460 lung
[31] = test system: NCI-H522 lung
[32] = test system: NCI/ADR-RES ovarian
[33] = test system: OVCAR-4 ovarian
[34] = test system: OVCAR-5 ovarian
[35] = test system: OVCAR-8 ovarian
[36] = test system: PC-3 prostate
[37] = test system: RPMI-8226 leukemia
[38] = test system: RXF 393 renal
[39] = test system: SF-268 CNS
[40] = test system: SF-295 CNS
[41] = test system: SF-539 CNS
[42] = test system: SK-MEL-2 melanoma
[43] = test system: SK-MEL-28 melanoma
[44] = test system: SK-MEL-5 melanoma
[45] = test system: SK-OV-3 ovarian
[46] = test system: SN12C renal
[47] = test system: SNB-19 CNS
[48] = test system: SNB-75 CNS
[49] = test system: SR leukemia
[50] = test system: SW-620 colon
[51] = test system: T-47D breast
[52] = test system: TK-10 renal
[53] = test system: U251 CNS
[54] = test system: UACC-257 melanoma
[55] = test system: UACC-62 melanoma
[56] = test system: UO-31 renal

## O=C1C(N2CCN(c3ccccc3)CC2)=C(Cl)C(=O)c2ncccc21
[1]
  GI50: 6.43 µM
  TGI: 18.8 µM
[2]
  GI50: 13.5 µM
  TGI: 34 µM
[3]
  GI50: 16.5 µM
  TGI: 32.6 µM
[4]
  GI50: 2.21 µM
  TGI: 5.8 µM
[5]
  GI50: 10.2 µM
  TGI: 21.8 µM
[6]
  GI50: 5.5 µM
  TGI: 18.2 µM
[7]
  GI50: 2.33 µM
  TGI: 6.65 µM
[8]
  GI50: 4.53 µM
  TGI: 17.1 µM
[9]
  GI50: 11.3 µM
  TGI: 23.6 µM
[10]
  GI50: 1.73 µM
  TGI: 3.38 µM
[11]
  GI50: 12 µM
  TGI: 24.9 µM
[12]
  GI50: 1.73 µM
  TGI: 3.11 µM
[13]
  GI50: 2.08 µM
  TGI: 6.22 µM
[14]
  GI50: 1.36 µM
  TGI: 3.94 µM
[15]
  GI50: 17.3 µM
  TGI: 31.4 µM
[16]
  GI50: 1.49 µM
  TGI: 2.93 µM
[17]
  GI50: 13.6 µM
  TGI: 47.4 µM
[18]
  GI50: 12 µM
  TGI: 27.3 µM
[19]
  GI50: 3.48 µM
  TGI: 12.3 µM
[20]
  GI50: 2.04 µM
  TGI: 5.51 µM
[21]
  GI50: 20.7 µM
  TGI: 43.6 µM
[22]
  GI50: 1.59 µM
  TGI: 3.07 µM
[23]
  GI50: 3.92 µM
  TGI: 14.7 µM
[24]
  GI50: 1.95 µM
  TGI: 4.25 µM
[25]
  GI50: 1.65 µM
  TGI: 3.6 µM
[26]
  GI50: 1.68 µM
  TGI: 3.21 µM
[27]
  GI50: 1.77 µM
  TGI: 3.29 µM
[28]
  GI50: 1.97 µM
  TGI: 5.38 µM
[29]
  GI50: 14.3 µM
  TGI: 31.9 µM
[30]
  GI50: 6.73 µM
  TGI: 22.4 µM
[31]
  GI50: 1.73 µM
  TGI: 3.55 µM
[32]
  GI50: 4.33 µM
  TGI: 20.7 µM
[33]
  GI50: 1.79 µM
  TGI: 3.44 µM
[34]
  GI50: 16.6 µM
  TGI: 32 µM
[35]
  GI50: 4.72 µM
  TGI: 17.6 µM
[36]
  GI50: 9.22 µM
  TGI: 23.1 µM
[37]
  GI50: 2.1 µM
  TGI: 5.37 µM
[38]
  GI50: 1.87 µM
  TGI: 3.43 µM
[39]
  GI50: 15.2 µM
  TGI: 29.6 µM
[40]
  GI50: 14.2 µM
  TGI: 27.3 µM
[41]
  GI50: 6.96 µM
  TGI: 20 µM
[42]
  GI50: 11.2 µM
  TGI: 23.6 µM
[43]
  GI50: 3.31 µM
  TGI: 10.3 µM
[44]
  GI50: 13.1 µM
  TGI: 25.7 µM
[45]
  GI50: 13.8 µM
  TGI: 29.9 µM
[46]
  GI50: 4.97 µM
  TGI: 17.8 µM
[47]
  GI50: 16.1 µM
  TGI: 30.6 µM
[48]
  GI50: 17.5 µM
  TGI: 38 µM
[49]
  GI50: 1.89 µM
  TGI: 6.42 µM
[50]
  GI50: 1.67 µM
  TGI: 3.89 µM
[51]
  GI50: 1.76 µM
  TGI: 3.95 µM
[52]
  GI50: 12.4 µM
  TGI: 25.5 µM
[53]
  GI50: 10.3 µM
  TGI: 22.7 µM
[54]
  GI50: 2.21 µM
  TGI: 6.22 µM
[55]
  GI50: 3.43 µM
  TGI: 12.4 µM
[56]
  GI50: 1.91 µM
  TGI: 4.3 µM
